# Patent US20130337564A1, “Treatment of Pluripotent Cells” (Janssen Biotech, Inc., priority 2012, published 2013)
# How the values were obtained:
# [1] = test system: human embryonic stem cell line H1; experiment: Dose titration secondary assay: cell number, H1; format: cell-based; details: positive control (Wnt3a/Activin A) normalized to 1.000
# Protocol: (§1) It was important to confirm the activity of hits identified from primary screening and further analyze the range of activity by dose titration. New samples of a selective subset of primary screening hits were obtained as dry powders, solubilized to make fresh stock reagents, and diluted into secondary confirmation assays to evaluate effects on human embryonic stem cells.
# (§2) Culture of two human embryonic stem cells (H1 and H9) was conducted as described in Example 1. Colonies of cells were maintained in an undifferentiated, pluripotent state on Matrigel™ ([…]) coated polystyrene plastic, using a 1:30 dilution of Matrigel™ in DMEM:F12 to coat the surface. Cells were split by enzymatic passage every four days on average. Passage was performed by exposing cell monolayers to a solution of collagenase (1 mg/ml; Sigma-Aldrich) for 10 to 60 minutes at 37° C. followed by gentle scraping with a pipette tip to recover cell clusters. Clusters were allowed to sediment by gravity, then washed to remove residual collagenase. Cell clusters were split at a 1:3 ratio for maintenance culture or a 1:1 ratio for subsequent assay. The human embryonic stem cell lines were maintained at less than passage 50 and routinely evaluated for normal karyotypic phenotype and absence of mycoplasma contamination.
# (§3) Cell clusters of the H1 or H9 human embryonic stem cell lines used in the assay were evenly resuspended in culture medium and plated onto Matrigel™-coated 96-well Packard VIEWPLATES (PerkinElmer) in volumes of 100 μl/well. MEF conditioned medium supplemented with 8 ng/ml bFGF was used for initial plating and expansion. Daily feeding was conducted by aspirating spent culture medium from each well and replacing with an equal volume of fresh medium. Cultures were allowed to expand one to three days after plating prior to initiating assay. Plates were maintained at 37° C., 5% CO2 in a humidified box for the duration of assay.
# (§4) A subset of hits resulting from primary screening was used for follow-up study and subsequent secondary assays. Twenty compounds available as dry powders were solubilized as 10 mM stocks in DMSO and stored dessicated at […] until use Immediately prior to assay, compound stocks were diluted 1:1000 to make 10 μM test compound in DMEM:F12 base medium (Invitrogen) supplemented with 0.5% FCS (HyClone) and 100 ng/ml Activin A (R&D Biosystems). This was further diluted two-fold in series to make a seven point dilution curve for each compound, also in DMEM:F12 base medium with 0.5% FCS and 100 ng/ml Activin A.
# (§5) Assay was initiated by aspirating culture medium from cell monolayers in each well followed by three washes in PBS to remove residual growth factors and serum. Test volumes of 100 μl per well were added back containing medium with 0.5% FCS and different concentrations of inhibitor compounds with 100 ng/ml Activin A, without Wnt3a. Positive control wells contained the same base medium with 0.5% FCS and with 20 ng/ml Wnt3a (R&D Biosystems) in the absence of test compound. Negative control wells contained the same base medium with 0.5% FCS, in the absence of Activin A, Wnt3a, or test compound. Assay wells were aspirated and fed again with identical concentrations of test compound or control solutions on day 2 of assay. On days 3 and 4, all assay wells were aspirated and fed with DMEM:F12 supplemented with 2% FCS and 100 ng/ml Activin A in the absence of both test compound or Wnt3a. Parallel negative control wells were maintained on days 3 and 4 in DMEM:F12 base medium with 2% FCS.
# (§6) At the end of culture, cells in 96-well plates were washed twice with PBS then fixed with 4% paraformaldehyde at room temperature for 20 minutes, washed three times more with PBS, and then permeabilized with 0.5% Triton X-100 for 20 minutes at room temperature. After fixing and permeabilizing, cells were washed again three times with PBS and then blocked with 4% chicken serum (Invitrogen) in PBS for 30 minutes at room temperature. […]
# [2] = test system: human embryonic stem cell line H9; experiment: Dose titration secondary assay: cell number, H9; format: cell-based
# Protocol: as §1, §2, §3, §4, §5, §6
SMILES,Cell number ([1]; Conc 0.156 μM),Cell number ([1]; Conc 0.313 μM),Cell number ([1]; Conc 0.625 μM),Cell number ([1]; Conc 1.25 μM),Cell number ([1]; Conc 2.5 μM),Cell number ([1]; Conc 5 μM),Cell number ([1]; Conc 10 μM),Cell number ([2]; 0.156 μM compound),Cell number ([2]; 0.313 μM compound),Cell number ([2]; 0.625 μM compound),Cell number ([2]; 1.25 μM compound),Cell number ([2]; 2.5 μM compound),Cell number ([2]; 5 μM compound),Cell number ([2]; 10 μM compound)
"CCN1CCOCCOCCn2cc(c3ccccc32)C2=C(C(=O)NC2=O)c2cn(c3ccccc23)CC1 [Compound 103, 14-Ethyl-6,7,9,10,13,14,15,16-octahydro-12H,23H-5,26:17,22-di(metheno)dibenzo[k,q]pyrrolo[3,4-n][1,4,7,10,19]dioxatriacyclohenicosine-23,25(24H)-dione]",1.027,1.028,0.921,0.897,0.566,0.034,0.001,0.458,0.686,0.927,1.011,0.681,0.023,0.001
"O=C1NC(=O)C2=C1c1cn(c3ccccc13)CCOCCOCCN(Cc1cccs1)CCn1cc2c2ccccc21 [Compound 133, 14-(2-Thienylmethyl)-6,7,9,10,13,14,15,16-octahydro-12H,23H-5,26:17,22-di(metheno)dibenzo[k,q]pyrrolo[3,4-n][1,4,7,10,19]dioxatriazacyclohenicosine-23,25(24H)-dione]",0.890,0.888,1.106,1.124,0.592,0.262,0.096,0.206,0.540,0.899,1.477,1.368,1.067,0.785
"CN1CCN(C)CCn2cc(c3ccccc32)C2=C(C(=O)NC2=O)c2cn(c3ccccc23)CC1 [Compound 111, 8,11-Dimethyl-6,7,8,9,10,11,12,13-octahydro-20H-5,23:14,19-di(metheno)dibenzo[k,q]pyrrolo[3,4-n][1,4,7,10]tetraazacyclooctadecine-20,22(21H)-dione]",0.659,0.785,0.801,0.914,1.031,1.128,0.412,0.072,0.100,0.371,0.442,0.600,0.793,1.117
"O=C1NC(=O)C2=C1c1cn(c3ccccc13)CCOCCOCCN(Cc1cccc3ccccc13)CCn1cc2c2ccccc21 [Compound 136, 14-(Naphthalen-1-ylmethyl)-6,7,9,10,13,14,15,16-octahydro-12H,23H-5,26:17,22-di(metheno)dibenzo[k,q]pyrrolo[3,4-n][1,4,7,10,19]dioxatriazacyclohenicosine-23,25(24H)-dione]",0.742,0.868,0.910,0.850,0.428,0.173,0.058,0.147,0.192,0.267,0.334,0.388,0.320,0.208
"CN1CCOCCOCCN(C)CCn2cc(c3ccccc32)C2=C(C(=O)NC2=O)c2cn(c3ccccc23)CC1 [Compound 112, 12,21-Dimethyl-11,12,13,14,16,17,20,21,22,23-decahydro-1H,10H,19H-9,4:24,29-di(metheno)dibenzo[k,q]pyrrolo[3,4-n][1,4,7,10,19,22]dioxatetraazacyclotetracosine-1,3(2H)-dione]",0.912,0.959,1.111,1.200,1.005,0.908,0.996,0.276,0.437,0.686,1.039,1.197,1.281,1.022
